From the SangsterLogP compilation

SMILES | logP
N#Cc1cc(-c2ccncc2)cnc1N1CCCC1 | 2.95
CC(O)CNc1ncc(-c2ccncc2)cc1C#N (stereo not given) | 0.79
N#Cc1cc(-c2ccncc2)cnc1N(CCO)CCO | 1.14
N#Cc1cc(-c2ccncc2)cnc1NCCCO | 1.42
N#Cc1cc(-c2ccncc2)cnc1Cl | 1.74
COC(CNc1ncc(-c2ccncc2)cc1C#N)OC | 2.28
N#Cc1cc(-c2ccncc2)cnc1NCc1ccccc1 | 3.45
C=CCNc1ncc(-c2ccncc2)cc1C#N | 2.07
CCC(CO)Nc1ncc(-c2ccncc2)cc1C#N (stereo not given) | 1.04
CCNc1ncc(-c2ccncc2)cc1C#N | 2.33
CN(C)c1ncc(-c2ccncc2)cc1C#N | 2.13
N#Cc1cc(-c2ccncc2)cnc1NCCOCCO | 1.62
COCCCNc1ncc(-c2ccncc2)cc1C#N | 2.03
N#Cc1cc(-c2ccncc2)cnc1NCCO | 1.17
N#Cc1cc(-c2ccncc2)cnc1NCCCCO | 1.93
